Results taken from US20170239237A1, “PYRROLOQUINOLINE DERIVATIVES AS 5-HT6 ANTAGONISTS, PREPARATION METHOD AND USE THEREOF” (Uniwersytet Jagiellonski, priority 2013, published 2017).
pKi: −log10 of the molar value. Where two headings read alike, the source gives them in different places. Marks after values point to notes of the source that are not given here.

Key:
5-HT1A receptor = molecular target: T1, 5-HT1A receptor (Homo sapiens, UniProt P08908); test: Radioligand binding, 5-HT1A ([3H]-8-OH-DPAT displacement)
T1 sequence (P08908 1-422): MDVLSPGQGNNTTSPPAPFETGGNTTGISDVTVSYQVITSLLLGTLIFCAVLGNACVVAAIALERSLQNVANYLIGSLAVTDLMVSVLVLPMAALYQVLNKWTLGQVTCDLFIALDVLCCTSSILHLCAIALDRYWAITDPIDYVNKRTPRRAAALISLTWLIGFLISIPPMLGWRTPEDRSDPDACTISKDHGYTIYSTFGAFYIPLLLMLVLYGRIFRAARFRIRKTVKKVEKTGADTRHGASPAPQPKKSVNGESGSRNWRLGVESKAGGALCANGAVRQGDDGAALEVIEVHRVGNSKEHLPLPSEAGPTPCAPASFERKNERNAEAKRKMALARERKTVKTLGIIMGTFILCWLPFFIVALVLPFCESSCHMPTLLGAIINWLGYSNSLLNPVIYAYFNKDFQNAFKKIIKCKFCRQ

Wistar rats [1] = test: Forced swim test (FST) in Wistar rats; type: in vivo, rat; conditions: IP, 60 minutes before the test; Wistar rats
Experimental: (§1) For intraperitoneal (i.p.) administration: to the desired quantity of the solid compound in a glass beaker, required volume of sterile water for injection was added and swirled with glass bar until complete dissolution of the compound.
(§2) Animals. Male Wistar rats weighing 220-250 g were used in the test. […] All animals were kept in an environmentally controlled rooms (ambient temperature 22±2° C; relative humidity 50-60%; 12:12 light:dark cycle, lights on at 8:00). They were allowed to acclimatize with the environment for one week before commencement of the experiments. Standard laboratory food (Ssniff M-Z) and filtered water were freely available. The experiments were conducted in the light phase between 09.00 and 14.00 hours. 1 h before the start of the experiment, rats were transferred to the experimental room for acclimation.
Apparatus and procedure. […] On the first day of experiment, the animals were gently individually placed in Plexiglas cylinders (40 cm high, 18 cm in diameter) containing 15 cm of water maintained at 25° C. for 15 min. Upon removal from water, the rats were placed in a Plexiglas box for 30 min under a 60-W bulb to dry off. On the following day, the rats were placed again in the cylinder and the total duration of immobility was recorded throughout the 5-min test period. Fresh water was used for each animal.
(§3) Experimental design. The compounds were administered IP, 60 minutes before the test.
(§4) Drugs. The experimental compounds were dissolved in the distilled water. All compounds were administrated in the volume of 2 ml/kg.

Wistar rats [2] = test: Conflict drinking test (Vogel test) in Wistar rats; type: in vivo, rat; conditions: for Minimum effective dose, conflict drinking (Vogel test) in rats (potential anxiolytic properties): IP, 60 minutes before the test, Wistar rats
Experimental: as §1, §2
Apparatus and procedure. […] Experimental chambers were connected to PC software by control chassis and electric shocks' generator. On the first day of the experiment, the rats were adapted to the test chambers for 10 min. […] Afterwards, they were allowed a 30-min free-drinking session in their home cages. […] Recording data started immediately after the first lick and every 20 licks rats were punished with an electric shock (0.5 mA, lasting 1 s). The impulses were released via the spout of the drinking bottles. If a rat was drinking when an impulse was released, it received a shock. The number of licks and the number of shocks received during a 5-min experimental session was recorded automatically.
as §3, §4

dopamine D2L receptor = dopamine D2L receptor (Homo sapiens, UniProt P14416); test: Radioligand binding, D2 ([3H]-raclopride displacement)
5-HT6 receptor [3] = molecular target: T2, 5-HT6 receptor (Homo sapiens, UniProt P50406); test: Radioligand binding, 5-HT6 ([3H]-LSD displacement); conditions: for displacement % at 10^−6M, 5-HT6: values marked c in the 5-HT6 column
5-HT7 receptor = 5-HT7 receptor (Homo sapiens, UniProt P34969); test: Radioligand binding, 5-HT7 ([3H]-5-CT displacement)
5-HT6 receptor [4] = molecular target: T2, 5-HT6 receptor; test: CHO-human-5HT6-Aequorin functional assay (ago-/antagonism); conditions: test concentration not given; for % inhibition of control agonist response: agonist effect, CHO-human-5HT6-Aequorin cells; for % inhibition of control antagonist response: antagonist effect vs 10^-6 M α-methylserotonin induced luminescence
[5] = read-out: Ki 5-HT1A, cloned human receptor in HEK293, three independent experiments, SEM ± 22%
[6] = read-out: Ki 5-HT6, cloned human receptor in HEK293, three independent experiments, SEM ± 22%

T2 sequence (P50406 whole entry): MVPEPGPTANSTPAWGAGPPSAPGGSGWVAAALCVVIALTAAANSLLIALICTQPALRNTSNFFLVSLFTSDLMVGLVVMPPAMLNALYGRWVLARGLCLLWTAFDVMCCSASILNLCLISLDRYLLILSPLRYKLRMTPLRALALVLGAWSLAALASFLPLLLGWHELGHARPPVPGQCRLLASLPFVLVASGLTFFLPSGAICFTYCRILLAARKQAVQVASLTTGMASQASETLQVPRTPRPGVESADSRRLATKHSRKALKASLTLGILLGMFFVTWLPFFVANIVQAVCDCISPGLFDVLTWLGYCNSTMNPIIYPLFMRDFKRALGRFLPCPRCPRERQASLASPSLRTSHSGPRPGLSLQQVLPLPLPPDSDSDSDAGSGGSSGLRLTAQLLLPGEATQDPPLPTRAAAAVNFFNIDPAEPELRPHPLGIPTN
5-HT7 receptor, sequence (P34969 1-432 limits assumed): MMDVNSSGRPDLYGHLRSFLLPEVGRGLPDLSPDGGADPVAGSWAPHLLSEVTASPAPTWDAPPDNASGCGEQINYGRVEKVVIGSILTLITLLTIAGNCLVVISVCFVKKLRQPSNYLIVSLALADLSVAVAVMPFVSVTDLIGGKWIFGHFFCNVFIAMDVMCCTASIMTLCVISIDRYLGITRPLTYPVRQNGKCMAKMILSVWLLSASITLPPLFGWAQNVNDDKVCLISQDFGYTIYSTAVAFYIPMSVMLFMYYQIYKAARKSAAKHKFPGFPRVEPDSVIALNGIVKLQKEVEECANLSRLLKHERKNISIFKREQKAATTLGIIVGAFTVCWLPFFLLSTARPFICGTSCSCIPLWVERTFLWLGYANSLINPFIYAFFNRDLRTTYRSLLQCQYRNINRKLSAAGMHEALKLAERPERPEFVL
dopamine D2L receptor, sequence (P14416 whole entry): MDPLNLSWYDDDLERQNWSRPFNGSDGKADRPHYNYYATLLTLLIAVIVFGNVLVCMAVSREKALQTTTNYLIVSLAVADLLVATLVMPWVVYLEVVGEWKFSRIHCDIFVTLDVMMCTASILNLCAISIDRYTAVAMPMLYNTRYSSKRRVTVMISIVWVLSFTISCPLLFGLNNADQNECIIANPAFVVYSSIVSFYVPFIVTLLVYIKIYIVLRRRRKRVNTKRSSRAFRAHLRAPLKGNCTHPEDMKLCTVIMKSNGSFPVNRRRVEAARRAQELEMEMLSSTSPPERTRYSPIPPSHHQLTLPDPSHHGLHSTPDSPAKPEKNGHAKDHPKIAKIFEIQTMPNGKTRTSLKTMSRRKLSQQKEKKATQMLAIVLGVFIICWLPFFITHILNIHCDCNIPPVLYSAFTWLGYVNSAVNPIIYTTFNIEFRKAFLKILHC

| SMILES | pKi (5-HT1A receptor; [5]) | Minimum effective dose, forced swim test in rats (potential antidepressant properties) (Wistar rats [1]) | Minimum effective dose, conflict drinking (Vogel test) in rats (potential anxiolytic properties) (Wistar rats [2]) | pKi (dopamine D2L receptor) | pKi (5-HT6 receptor [3]) | pKi (5-HT7 receptor) | pKi (5-HT1A receptor) | % inhibition of control agonist response (5-HT6 receptor [4]) | % inhibition of control antagonist response (5-HT6 receptor [4]) | displacement % at 10^−6M, 5-HT6 (5-HT6 receptor [3]) | pKi (5-HT6 receptor [3]; [6]) | pKi (dopamine D2L receptor; read-out: Ki D2, cloned human receptor in HEK293, three independent experiments, SEM ± 22%) | pKi (5-HT7 receptor; read-out: Ki 5-HT7, cloned human receptor in HEK293, three independent experiments, SEM ± 22%) | active dose in the conflict drinking test (Vogel test), increasing number of licks and shocks received (Wistar rats [2]; rats) |
| --- | --- | --- | --- | --- | --- | --- | --- | --- | --- | --- | --- | --- | --- | --- |
| O=S(=O)(c1cccc(F)c1)n1ccc2c(N3CCNCC3)nc3ccccc3c21 [Compound 30, 1-((3-fluorophenyl)sulfonyl)-4-(piperazin-1-yl)-1H-pyrrolo[3,2-c]quinoline] | 6.36 | 10 mg/kg | 10 mg/kg |  |  |  |  |  |  |  |  |  |  |  |
| O=S(=O)(c1cccc(Cl)c1)n1ccc2c(N3CCOCC3)nc3ccccc3c21 [Compound 78, 1-((3-chlorophenyl)sulfonyl)-4-(morpholine-4-yl)-1H-pyrrolo[3,2-c]quinoline] |  |  |  | 4.43 | 6.80 | 4.70 | 3.34 | 21.3% | 23.8% |  |  |  |  |  |
| Nc1ccc(S(=O)(=O)n2ccc3c(N4CCNCC4)nc4ccccc4c32)cc1 [Compound 42, 1-(4-(aminophenyl)sulfonyl)-4-(piperazin-1-yl)-1H-pyrrolo[3,2-c]quinoline] |  | 0.1 mg/kg | 3 mg/kg |  |  |  |  |  |  | 97^c % |  |  |  |  |
| O=S(=O)(c1cccc(F)c1)n1ccc2c(NC3CCNC3)nc3ccccc3c21 (stereo not drawn) [Compound 8, 1-((3-fluorophenyl)sulfonyl)-N-(pyrrolidin-3-yl)-1H-pyrrolo[3,2-c]quinolin-4-amine] |  |  |  | 6.05 | 8.30 | 5.02 | 5.52 | 9.6% | 80.8% |  |  |  |  |  |
| CC(C)c1ccc(S(=O)(=O)n2ccc3c(N4CCNCC4)nc4ccccc4c32)cc1 [Compound 40, 1-((4-isopropylphenyl)sulfonyl)-4-(piperazin-1-yl)-1H-pyrrolo[3,2-c]quinoline] |  |  |  | 5.59 |  | 5.49 | 6.83 | −5.2% | 65.3% |  | 7.85 |  |  |  |
| Cc1c(S(=O)(=O)n2ccc3c(N4CCNCC4)nc4ccccc4c32)sc2ccc(Cl)cc12 [Compound 48, 1-((5-chloro-3-methylbenzo[b]thiophen-2-yl)sulfonyl)-4-(piperazin-1-yl)-1H-pyrrolo[3,2-c]quinoline] |  |  |  | 6.72 | 7.80 | 5.05 | 5.83 | 2.7% | 37.7% |  |  |  |  |  |
| CN1CCN(c2nc3ccccc3c3c2ccn3S(=O)(=O)c2cccc3cccnc23)CC1 [Compound 59, 1-(quinolin-8-ylsulfonyl)-4-(4-methylpiperazin-1-yl)-1H-pyrrolo[3,2-c]quinolone] | 6.68 |  |  |  |  |  |  | 16.9% | 61.0% |  | > 9.00 | 5.72 | 5.11 |  |
| COc1cccc(S(=O)(=O)n2ccc3c(NC4CCNC4)nc4ccccc4c32)c1 (stereo not drawn) [Compound 13, 1-((3-methoxyphenyl)sulfonyl)-N-(pyrrolidin-3-yl)-1H-pyrrolo[3,2-c]quinolin-4-amine] |  |  |  | 6.29 | 8.22 | 5.31 | 5.29 | 6.5% | 68.8% |  |  |  |  |  |
| N#Cc1cccc(S(=O)(=O)n2ccc3c(N4CCNCC4)nc4ccccc4c32)c1 [Compound 38, 1-((3-cyanophenyl)sulfonyl)-4-(piperazin-1-yl)-1H-pyrrolo[3,2-c]quinoline] |  |  |  | 5.33 | 7.85 | 5.62 | 6.66 | 7.0% | 61.3% |  |  |  |  |  |
| O=S(=O)(c1cccc2ccccc12)n1ccc2c(NC3CCNC3)nc3ccccc3c21 (stereo not drawn) [Compound 21, 1-(naphthalen-1-ylsulfonyl)-N-(pyrrolidin-3-yl)-1H-pyrrolo[3,2-c]quinolin-4-amine] |  |  |  | 5.65 | 7.72 | 5.85 | 5.27 | 10.6% | 60.0% |  |  |  |  |  |
| O=S(=O)(c1cccc2cccnc12)n1ccc2c(NC3CCNC3)nc3ccccc3c21 (stereo not drawn) [Compound 22, 1-(quinolin-8-ylsulfonyl)-N-(pyrrolidin-3-yl)-1H-pyrrolo[3,2-c]quinolin-4-amine] |  |  |  | 5.19 | 8.40 | 4.73 | 4.82 | 16.4% | 70.2% |  |  |  |  |  |
| O=S(=O)(c1cccc2cccnc12)n1ccc2c(N3CCNCC3)nc3ccccc3c21 [Compound 45, 1-(quinolin-8-ylsulfonyl)-4-(piperazin-1-yl)-1H-pyrrolo[3,2-c]quinoline] |  |  |  | 5.20 | 8.30 | 5.11 | 6.04 | 7.8% | 75.8% |  |  |  |  |  |
| CN1C(=O)CN=C(c2ccccc2)c2cc(Cl)ccc21 [diazepam, reference compound] |  |  |  |  |  |  |  |  |  |  |  |  |  | 5 to 10 mg/kg |
| O=S(=O)(c1cccc(F)c1)n1ccc2c(N[C@@H]3CCNC3)nc3ccccc3c21 [Compound 10, (R)-1-((3-fluorophenyl)sulfonyl)-N-(pyrrolidin-3-yl)-1H-pyrrolo[3,2-c]quinolin-4-amine] |  |  | 10 mg/kg |  |  |  |  |  |  | 100^c % |  |  |  |  |
| O=S(=O)(c1ccc(F)cc1)n1ccc2c(NC3CCNC3)nc3ccccc3c21 (stereo not drawn) [Compound 11, 1-((4-fluorophenyl)sulfonyl)-N-(pyrrolidin-3-yl)-1H-pyrrolo[3,2-c]quinolin-4-amine] |  |  |  | 6.18 | 7.74 | 5.16 | 5.23 | 4.8% | 51.8% |  |  |  |  |  |
